In brackets after ≈: the same amount, converted by molar mass.
What was measured:
Format in all cases: functional
[1] = test system: Staphylococcus epidermidis; experiment: Antimicrobial activity against methicillin-susceptible Staphylococcus epidermidis clinical isolate incubated for 16 hrs by CLSI based agar dilution method
[2] = test system: Staphylococcus epidermidis; experiment: Antimicrobial activity against methicillin-resistant Staphylococcus epidermidis clinical isolate incubated for 16 hrs by CLSI based agar dilution method
[3] = test system: Staphylococcus aureus; experiment: Antimicrobial activity against methicillin-susceptible Staphylococcus aureus clinical isolate incubated for 16 hrs by CLSI based agar dilution method
[4] = test system: Staphylococcus aureus; experiment: Antimicrobial activity against methicillin-resistant Staphylococcus aureus clinical isolate incubated for 16 hrs by CLSI based agar dilution method
[5] = test system: Escherichia coli; experiment: Antimicrobial activity against Escherichia coli ATCC 700603 incubated for 16 hrs by CLSI-based agar dilution method; conditions: ATCC 700603, 16 h
[6] = test system: Klebsiella pneumoniae; experiment: Antimicrobial activity against Klebsiella pneumoniae ATCC 29522 incubated for 16 hrs by CLSI-based agar dilution method; conditions: ATCC 29522, 16 h
[7] = test system: Escherichia coli; experiment: Antimicrobial activity against ESBL non-producing Escherichia coli ATCC 25922
[8] = test system: Klebsiella pneumoniae; experiment: Antimicrobial activity against ESBL-producing Klebsiella pneumoniae ATCC 700603
[9] = test system: Acinetobacter calcoaceticus; experiment: Antimicrobial activity against Acinetobacter calcoaceticus ATCC 19606
[10] = test system: Enterobacter cloacae; experiment: Antimicrobial activity against Enterobacter cloacae ATCC 43560
[11] = test system: Pseudomonas aeruginosa; experiment: Antimicrobial activity against Pseudomonas aeruginosa ATCC 27853

Compound | MIC [1] | MIC [2] | MIC [3] | MIC [4] | MIC [5] | MIC [6] | MIC [7] | MIC [8] | MIC [9] | MIC [10] | MIC [11]
O=C(O)c1cn(CCF)c2c(F)c(N3CCN(CC(O)Cn4cc([N+](=O)[O-])nc4Cl)CC3)c(F)cc2c1=O (centres undefined) | 16 µg/mL (≈ 28.6 µM) | 2 µg/mL (≈ 3.58 µM) | 16 µg/mL (≈ 28.6 µM) | 32 µg/mL (≈ 57.3 µM) | > 32 µg/mL | > 32 µg/mL | – | – | – | – | –
CCn1cc(C(=O)O)c(=O)c2cc(F)c(N3CCN(CC(O)Cn4cc([N+](=O)[O-])nc4Cl)C(C)C3)c(F)c21 (centres undefined) | 2 µg/mL (≈ 3.6 µM) | 0.125 µg/mL (≈ 0.225 µM) | 4 µg/mL (≈ 7.21 µM) | 32 µg/mL (≈ 57.7 µM) | 4 µg/mL (≈ 7.21 µM) | 32 µg/mL (≈ 57.7 µM) | – | – | – | – | –
COc1c(N2C[C@@H]3CCCN(C[C@H](O)Cn4cc([N+](=O)[O-])nc4C)[C@@H]3C2)c(F)cc2c(=O)c(C(=O)O)cn(C3CC3)c12 | 0.125 µg/mL (≈ 0.214 µM) | 0.03 µg/mL (≈ 0.0513 µM) | 0.125 µg/mL (≈ 0.214 µM) | 2 µg/mL (≈ 3.42 µM) | 2 µg/mL (≈ 3.42 µM) | 1 µg/mL (≈ 1.71 µM) | – | – | – | – | –
O=C(O)c1cn([C@@H]2C[C@@H]2F)c2cc(N3CCN(Cn4nc(-c5cccc(O)c5)n(-c5ccccc5)c4=S)CC3)c(F)cc2c1=O | – | – | – | – | – | – | ≤ 0.05 µM | 1.59 µM (≈ 1 µg/mL) | 6.35 µM (≈ 4 µg/mL) | ≤ 0.05 µM | 1.59 µM (≈ 1 µg/mL)
COc1ccccc1-c1nn(CN2CCN(c3cc4c(cc3F)c(=O)c(C(=O)O)cn4[C@@H]3C[C@@H]3F)CC2)c(=S)n1-c1ccccc1 | – | – | – | – | – | – | ≤ 0.05 µM | 0.78 µM (≈ 0.503 µg/mL) | 6.21 µM (≈ 4 µg/mL) | ≤ 0.05 µM | 3.1 µM (≈ 2 µg/mL)
COc1c(N2C[C@H]3CCCN(C(O)Cn4cc([N+](=O)[O-])nc4Cl)[C@H]3C2)c(F)cc2c(=O)c(C(=O)O)cn(C3CC3)c12 (some centres undefined) | 0.25 µg/mL (≈ 0.423 µM) | 0.125 µg/mL (≈ 0.212 µM) | 0.5 µg/mL (≈ 0.846 µM) | 16 µg/mL (≈ 27.1 µM) | 2 µg/mL (≈ 3.38 µM) | > 32 µg/mL | – | – | – | – | –
O=C(O)c1cn([C@@H]2C[C@@H]2F)c2cc(N3CCN(Cn4nc(-c5ccncc5)n(-c5ccccc5)c4=S)CC3)c(F)cc2c1=O | – | – | – | – | – | – | 0.1 µM (≈ 0.0616 µg/mL) | 3.25 µM (≈ 2 µg/mL) | 13 µM (≈ 8 µg/mL) | ≤ 0.05 µM | 3.25 µM (≈ 2 µg/mL)
O=C(O)c1cn(C2CC2)c2nc(N3CCN(CC(O)Cn4cc([N+](=O)[O-])nc4Cl)CC3)c(F)cc2c1=O (centres undefined) | 2 µg/mL (≈ 3.73 µM) | 0.125 µg/mL (≈ 0.233 µM) | 4 µg/mL (≈ 7.46 µM) | 16 µg/mL (≈ 29.9 µM) | 16 µg/mL (≈ 29.9 µM) | > 32 µg/mL | – | – | – | – | –
COc1cccc(-c2nn(CN3CCN(c4cc5c(cc4F)c(=O)c(C(=O)O)cn5[C@@H]4C[C@@H]4F)CC3)c(=S)n2-c2ccccc2)c1 | – | – | – | – | – | – | ≤ 0.05 µM | 1.55 µM (≈ 0.999 µg/mL) | 12.4 µM (≈ 8.01 µg/mL) | ≤ 0.05 µM | 6.21 µM (≈ 4 µg/mL)
COc1c(N2CCCC(N(C)CC(O)Cn3cc([N+](=O)[O-])nc3Cl)C2)c(F)cc2c(=O)c(C(=O)O)cn(C3CC3)c12 (centres undefined) | 0.5 µg/mL (≈ 0.843 µM) | 0.25 µg/mL (≈ 0.422 µM) | 0.5 µg/mL (≈ 0.843 µM) | 8 µg/mL (≈ 13.5 µM) | 4 µg/mL (≈ 6.75 µM) | > 32 µg/mL | – | – | – | – | –
O=C(O)c1cn([C@@H]2C[C@@H]2F)c2cc(N3CCN(Cn4nc(-c5cccnc5)n(-c5ccccc5)c4=S)CC3)c(F)cc2c1=O | – | – | – | – | – | – | ≤ 0.05 µM | 1.63 µM (≈ 1 µg/mL) | 13 µM (≈ 8 µg/mL) | ≤ 0.05 µM | 1.63 µM (≈ 1 µg/mL)
Cc1cc(C)cc(-c2nn(CN3CCN(c4cc5c(cc4F)c(=O)c(C(=O)O)cn5[C@@H]4C[C@@H]4F)CC3)c(=S)n2Cc2ccccc2)c1 | – | – | – | – | – | – | ≤ 0.04 µM | 1.45 µM (≈ 0.952 µg/mL) | 5.81 µM (≈ 3.82 µg/mL) | ≤ 0.04 µM | 1.45 µM (≈ 0.952 µg/mL)
O=C(O)c1cn([C@@H]2C[C@@H]2F)c2cc(N3CCN(Cn4nc(-c5ccccc5O)n(-c5ccccc5)c4=S)CC3)c(F)cc2c1=O | – | – | – | – | – | – | 0.1 µM (≈ 0.0631 µg/mL) | 1.59 µM (≈ 1 µg/mL) | 12.7 µM (≈ 8 µg/mL) | ≤ 0.05 µM | 1.59 µM (≈ 1 µg/mL)
COc1c(N2C[C@@H]3CCCN(CC(O)Cn4cc([N+](=O)[O-])nc4C)[C@@H]3C2)c(F)cc2c(=O)c(C(=O)O)cn(C3CC3)c12 (some centres undefined) | 0.25 µg/mL (≈ 0.428 µM) | 0.125 µg/mL (≈ 0.214 µM) | 0.5 µg/mL (≈ 0.855 µM) | 8 µg/mL (≈ 13.7 µM) | 4 µg/mL (≈ 6.84 µM) | 8 µg/mL (≈ 13.7 µM) | – | – | – | – | –
O=C(O)c1cn([C@@H]2C[C@@H]2F)c2cc(N3CCN(Cn4nc(-c5ccncc5)n(Cc5ccccc5)c4=S)CC3)c(F)cc2c1=O | – | – | – | – | – | – | ≤ 0.05 µM | 1.59 µM (≈ 1 µg/mL) | 12.7 µM (≈ 8 µg/mL) | ≤ 0.05 µM | 0.79 µM (≈ 0.497 µg/mL)
CCn1cc(C(=O)O)c(=O)c2cc(F)c(N3CCN(CC(O)Cn4cc([N+](=O)[O-])nc4Cl)CC3)nc21 (centres undefined) | 2 µg/mL (≈ 3.82 µM) | 4 µg/mL (≈ 7.63 µM) | 16 µg/mL (≈ 30.5 µM) | 32 µg/mL (≈ 61.1 µM) | > 32 µg/mL | > 32 µg/mL | – | – | – | – | –
COc1c(N2CCCC(N(C)C[C@@H](O)Cn3cc([N+](=O)[O-])nc3C)C2)c(F)cc2c(=O)c(C(=O)O)cn(C3CC3)c12 (some centres undefined) | 1 µg/mL (≈ 1.75 µM) | 0.25 µg/mL (≈ 0.437 µM) | 1 µg/mL (≈ 1.75 µM) | 32 µg/mL (≈ 55.9 µM) | 8 µg/mL (≈ 14 µM) | 16 µg/mL (≈ 27.9 µM) | – | – | – | – | –

Source: ChEMBL document CHEMBL4602605, “Fluoroquinolones structural and medicinal developments (2013-2018): Where are we now?” (Bioorg Med Chem, 2019)
